From ChEMBL document CHEMBL5046316, “Structure-Based Optimization of a Fragment-like TLR8 Binding Screening Hit to an In Vivo Efficacious TLR7/8 Antagonist” (ACS Med Chem Lett, 2022)

Experiments:
[1] = biological target: Voltage-gated inwardly rectifying potassium channel KCNH2 (Homo sapiens, UniProt Q12809); experiment: Inhibition of human ERG; format: toxicity
Toll-like receptor 9 [2] = biological target: T1, Toll-like receptor 9 (Homo sapiens, UniProt Q9NR96); experiment: Antagonist activity at human TLR9 expressed in human PBMC cells assessed as inhibition of ODN2216 stimulated IFNalpha level preincubated for 30 mins followed by stimulation and measured after 20 hrs by AlphaLISA method; format: cell-based
T1 sequence (Q9NR96 whole entry): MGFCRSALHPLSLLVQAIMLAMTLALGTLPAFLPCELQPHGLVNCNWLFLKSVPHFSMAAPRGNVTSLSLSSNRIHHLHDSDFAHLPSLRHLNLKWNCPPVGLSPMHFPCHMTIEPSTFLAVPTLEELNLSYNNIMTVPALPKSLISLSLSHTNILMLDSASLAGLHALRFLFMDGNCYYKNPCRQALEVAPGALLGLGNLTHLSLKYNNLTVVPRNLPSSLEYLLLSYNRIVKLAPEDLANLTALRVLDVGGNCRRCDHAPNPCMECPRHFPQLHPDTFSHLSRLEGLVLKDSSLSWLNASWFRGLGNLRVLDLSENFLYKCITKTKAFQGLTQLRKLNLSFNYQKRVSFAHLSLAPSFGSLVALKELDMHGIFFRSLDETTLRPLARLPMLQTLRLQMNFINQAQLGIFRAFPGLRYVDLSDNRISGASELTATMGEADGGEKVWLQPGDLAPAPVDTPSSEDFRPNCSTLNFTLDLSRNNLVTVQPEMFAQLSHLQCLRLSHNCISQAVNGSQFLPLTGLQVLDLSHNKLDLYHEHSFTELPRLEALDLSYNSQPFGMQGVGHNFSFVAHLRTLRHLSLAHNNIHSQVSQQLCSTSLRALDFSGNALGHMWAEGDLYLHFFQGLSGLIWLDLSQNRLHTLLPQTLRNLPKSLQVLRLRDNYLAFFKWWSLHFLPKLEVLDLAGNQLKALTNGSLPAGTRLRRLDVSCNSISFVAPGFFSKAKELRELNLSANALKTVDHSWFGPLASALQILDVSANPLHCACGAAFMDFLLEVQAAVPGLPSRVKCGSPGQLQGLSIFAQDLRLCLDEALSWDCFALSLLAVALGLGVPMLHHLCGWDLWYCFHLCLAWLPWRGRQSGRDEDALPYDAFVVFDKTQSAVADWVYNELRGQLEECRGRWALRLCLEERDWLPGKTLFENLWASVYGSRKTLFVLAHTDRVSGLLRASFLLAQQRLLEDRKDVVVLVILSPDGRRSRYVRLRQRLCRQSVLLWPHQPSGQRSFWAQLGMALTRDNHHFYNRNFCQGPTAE

[3] = Drug exposure in 129Sv mouse blood at 3 mg/kg, po by LC-MS/MS analysis; format: ADME, organism-based; conditions: in vivo, read-out: Drug uptake
Toll-like receptor 9 [4] = biological target: T1, Toll-like receptor 9; experiment: Antagonist activity at human TLR9 expressed in human whole blood assessed as inhibition of ODN2216 stimulated IFNalpha level preincubated for 30 mins followed by stimulation and measured after 20 hrs by AlphaLISA method; format: tissue-based
[5] = Drug exposure in 129Sv mouse blood at 0.1 mg/kg, po by LC-MS/MS analysis; format: ADME, organism-based; conditions: in vivo, read-out: Drug uptake
[6] = Dose normalized Cmax in Balb/c mouse at 10 mg/kg, po and 1 mg/kg, iv administered as cassette dose measured upto 24 hrs by LC/MS/MS analysis; format: ADME, organism-based; conditions: in vivo
[7] = Dissociation constant, pKa of the compound by UV spectrometric titration method; format: physicochemical
[8] = Dose normalized AUC in Balb/c mouse at 10 mg/kg, po and 1 mg/kg,iv administered as cassette dose measured upto 24 hrs by LC/MS/MS analysis; format: ADME, organism-based; design: dose 10 mg/kg, time <=24; conditions: in vivo
[9] = Volume of distribution at steady state in Balb/c mouse at 10 mg/kg, po or 1 mg/kg, iv administered as cassette dose measured upto 24 hrs by LC/MS/MS analysis; format: ADME, organism-based; conditions: in vivo, read-out: Vdss

Chain of Voltage-gated inwardly rectifying potassium channel KCNH2 (Q12809 whole entry): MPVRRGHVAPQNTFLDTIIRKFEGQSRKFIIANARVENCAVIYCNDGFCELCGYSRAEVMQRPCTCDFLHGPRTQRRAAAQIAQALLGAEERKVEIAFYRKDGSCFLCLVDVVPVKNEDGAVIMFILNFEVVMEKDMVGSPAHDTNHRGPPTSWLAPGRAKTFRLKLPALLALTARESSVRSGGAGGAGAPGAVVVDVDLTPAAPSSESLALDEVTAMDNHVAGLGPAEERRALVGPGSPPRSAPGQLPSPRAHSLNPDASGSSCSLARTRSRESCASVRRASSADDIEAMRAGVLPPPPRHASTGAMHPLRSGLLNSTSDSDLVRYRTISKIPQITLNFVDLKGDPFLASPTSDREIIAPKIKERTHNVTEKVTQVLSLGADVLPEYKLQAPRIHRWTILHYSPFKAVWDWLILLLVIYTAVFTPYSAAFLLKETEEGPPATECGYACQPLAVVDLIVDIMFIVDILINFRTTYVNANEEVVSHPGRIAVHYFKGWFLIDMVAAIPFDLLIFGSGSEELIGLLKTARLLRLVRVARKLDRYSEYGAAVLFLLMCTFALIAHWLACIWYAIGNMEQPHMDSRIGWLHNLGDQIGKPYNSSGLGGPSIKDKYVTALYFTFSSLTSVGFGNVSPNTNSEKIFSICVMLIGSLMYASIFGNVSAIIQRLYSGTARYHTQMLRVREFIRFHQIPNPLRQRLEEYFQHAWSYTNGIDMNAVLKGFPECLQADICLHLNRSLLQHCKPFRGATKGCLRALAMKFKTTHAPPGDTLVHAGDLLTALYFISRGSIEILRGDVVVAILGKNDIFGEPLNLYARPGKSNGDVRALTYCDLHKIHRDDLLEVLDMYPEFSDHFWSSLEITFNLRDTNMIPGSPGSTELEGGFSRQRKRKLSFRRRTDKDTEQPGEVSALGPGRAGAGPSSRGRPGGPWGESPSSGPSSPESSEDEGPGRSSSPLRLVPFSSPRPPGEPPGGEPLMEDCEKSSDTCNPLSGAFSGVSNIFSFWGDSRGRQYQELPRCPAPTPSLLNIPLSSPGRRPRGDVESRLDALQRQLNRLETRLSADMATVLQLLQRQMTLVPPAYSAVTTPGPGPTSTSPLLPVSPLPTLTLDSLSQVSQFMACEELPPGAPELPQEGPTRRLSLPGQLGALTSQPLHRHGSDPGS

IC50 (Toll-like receptor 9 [2]): > 570 nM
concentration [3]: 110 nM
IC50 (Toll-like receptor 9 [4]): 390 nM
concentration [5]: 0.4 nM
Cmax/dose [6]: 79 nM/mg/kg
pKa [7]: 6.7
AUC [8]: 304 nM·h/mg/kg
Vd [9]: 8.4 L/kg
Structure (SMILES): Cc1cc(-c2cc3[nH]nc(N[C@@H]4CCNC[C@H]4F)c3cc2C2CC2)cc(C)n1
IC50 [1]: > 30000 nM
